The values that follow are results of earlier work, collected in US20130053277A1 (priority 2010, published 2013).

This series addresses influenza A virus M2 ion channel, S31N mutant (Influenza A virus, UniProt P0DOF5, S31N). Conditions: cited from earlier work.

Regarding `NC12CC3CC(CC(C3)C1)C2` [amantadine, Amantadine], the “isochronic apparent inhibitory binding constant” value is on record as 200 JLM.
